From US11612586B2, “Indole regulation of antigen presenting cells” (THE TEXAS A&M UNIVERSITY SYSTEM, priority 2016, dated 2023)

Columns and labels:
Format in all cases: cell-based, mouse
[1] = tested on: TGF-β; test: TGF-β production by BMDC cultures (ELISA); conditions: indole-conditioned DCs
Experimental: To determine whether this was a specific downregulation of pro-inflammatory cytokines, production of the canonical DC-produced anti-inflammatory cytokines, IL-10 and TGF-β, was also examined.
Cytokine concentration in the supernatant of BMDC cultures was assessed using commercially available ELISA kits for IL-10 (Peprotech) and TGF-β (eBioscience) per the manufacturer's instructions.

[2] = tested on: aldehyde dehydrogenase (ALDH); test: Aldehyde dehydrogenase activity in BMDCs (Aldefluor); conditions: indole 1 mM from day 3, Aldefluor
Experimental: FIG. 13A: BMDCs were cultured from day 3 with indole (1 mM), retinoic acid (1 uM), or DMF control were assayed for aldehyde dehydrogenase (ALDH) activity using the Aldefluor commercial kit. The ALDH inhibitor, DEAB reagent, was included to control for background fluorescence. Aldefluor fluorescence as a measure of ALDH activity was analyzed by flow cytometry. Data is reported as percentage of Aldefluor positive DCs (left panel) and corresponding MFI values (right panel). Individual dots represent data from five independent experiments. FIG. 13B: Gene expression of aldh1a2 was assayed by real-time qPCR in day 7 BMDCs cultured with indole from day 3. Gene expression was normalized to 18 s ribosomal RNA. […]
One possible explanation for these observations is that indole promotes retinoic acid availability to the DCs, thus inducing gut homing markers indirectly by providing substrate for a previously identified mechanism. To investigate this possibility, aldehyde dehydrogenase (ALDH) activity was analyzed via flow cytometry using the fluorescent ALDH substrate, Aldefluor. […]
Activity of aldehyde dehydrogenase (ALDH) in individual BMDCs was measured using an Aldefluor staining kit (Stem Cell Technologies) according to the manufacturer's instructions with minor modifications. […] Subsequently, cells were stained with CD11c in cold Aldefluor assay buffer and then analyzed by flow cytometry.

[3] = tested on: naïve CD4+CD25− T cells; test: DC-T cell co-culture, monoclonal (OT-II, OVA323-339) stimulation: Foxp3+ Treg induction
Experimental: FIG. 16 graphically illustrates that indole-conditioned DCs preferentially induce Foxp3+ Tregs (monoclonal stimulation). Naïve CD4+CD25− T cells from OT-II TCR transgenic mice were isolated and labeled with cell proliferation dye. Naïve T cells were then co-cultured with OVA323-339 peptide-loaded BMDCs for 72 hours in the presence of TGF-β as indicated. BMDCs were previously treated with indole, RA, or DMF from day 3. Following 3 days of co-culture, surface and intracellular staining was performed for flow cytometric analysis. The mean percentage of Foxp3-positive […] from four independent experiments is shown. * indicates p<0.05 for one-way ANOVA followed by Dunnett's post-test.
FIGS. 20A and 20B graphically illustrate that T cell skewing mediated by indole-conditioned DCs is AhR-independent. BMDCs were differentiated from WT or AhR-KO mice and conditioned with indole, RA, or DMF from day 3. DCs were then loaded with OVA323-339 and co-cultured with naïve CD4+CD25− T cells from OT-II transgenic mice for 72 hours. For Th1 cultures, T cells were restimulated with PMA and ionomycin in the presence of golgiplug for the last 5 hours of culture. Subsequently, all cultures were stained and analyzed by flow cytometry for Foxp3 to identify Tregs or (B) IFNγ to identify Th1 cells.
To investigate whether indole-conditioned DCs preferentially induce Tregs, a co-culture system using FACS-sorted wild-type naïve CD4+CD25− T cells was employed. These naïve T cells were activated by antibodies against CD3 and CD28 in the presence of indole-conditioned BMDCs and cultured for 72 hours. Under this platform for polyclonal stimulation, a 2-fold increase in Treg induction in indole-DC cultures compared to controls was observed (FIG. 15). Additionally, the inventors pursued the same question in a more physiologically relevant model; i.e., under monoclonal T cell stimulation. […]

c1ccc2[nH]ccc2c1 [Indole, indole]
TGF-β production [1]: Neither IL-10 nor TGF-β production were affected
ALDH activity in DCs [2]: does not affect ALDH activity
Treg induction above solvent controls ([3]; BMDCs conditioned with indole, exogenous TGF-β absent or 2 ng/ml): Significance was not reached
Treg induction above solvent controls ([3]; OT-II T cells with OVA-loaded BMDCs conditioned with indole, TGF-β at 10 and 30 ng/ml): 3.5 fold
AhR dependence of Treg skewing ([3]; indole-conditioned BMDCs from wild-type or AhR−/− mice): entirely independent of AhR
